Experimental data reported in US11812767B2, “Beverage having Reb D and Reb M” (SUNTORY HOLDINGS LIMITED, priority 2018, dated 2023).

Assays:
[1] = Degradation of Reb D and Reb M in phosphate buffer at 40° C. for 8 weeks, analysed by HPLC; type: physicochemical; conditions: for % Reb D degradation 2 weeks: 2 weeks at 40° C.; for % Reb D degradation 4 weeks: 4 weeks at 40° C.; for % Reb D degradation 6 weeks: 6 weeks at 40° C.; for % Reb D degradation 8 weeks: 8 weeks at 40° C.
Description: A study was carried out as follows, samples were prepared comprising 50 ppm, 150 ppm, 250 ppm and 400 ppm, of Reb D and samples with the following ratios of Reb D:Reb M 1:4, 1:1, 4:1 wherein the total concentration of the sample was 400 ppm. The samples were prepared in phosphate buffer and the pH was adjusted using phosphoric acid. Samples were prepared at the following pH; 2.0, 2.5, 3.0 and 3.5. These samples were incubated at 40° C. for 8 weeks. This incubation protocol should mimic the degradation at room temperature over 6 months. The amount of Reb D and Reb M in each sample at T=0 was calculated by HPLC this was then used to calculate the amount of remaining Reb M in each sample at each specified time point. Aliquots were taken at 2, 4, 6 and 8 weeks and analysed by HPLC to determine the degradation of Reb D and combinations of Reb D and Reb M over the 8 week study.

[2] = cited from earlier work
[3] = pH 2, Reb D 0.008 % w/w + Reb M 0.032 % w/w
[4] = pH 2, Reb D 0.02 % w/w + Reb M 0.02 % w/w
[5] = pH 2, Reb D 0.032 % w/w + Reb M 0.008 % w/w
[6] = pH 2.5, Reb D 0.005 % w/w alone
[7] = pH 2.5, Reb D 0.008 % w/w + Reb M 0.032 % w/w
[8] = pH 2.5, Reb D 0.015 % w/w alone
[9] = pH 2.5, Reb D 0.02 % w/w + Reb M 0.02 % w/w
[10] = pH 2.5, Reb D 0.025 % w/w alone
[11] = pH 2.5, Reb D 0.032 % w/w + Reb M 0.008 % w/w
[12] = pH 3, Reb D 0.008 % w/w + Reb M 0.032 % w/w
[13] = pH 3, Reb D 0.02 % w/w + Reb M 0.02 % w/w
[14] = pH 3, Reb D 0.032 % w/w + Reb M 0.008 % w/w
[15] = pH 3.5, Reb D 0.005 % w/w alone
[16] = pH 3.5, Reb D 0.008 % w/w + Reb M 0.032 % w/w
[17] = pH 3.5, Reb D 0.015 % w/w alone
[18] = pH 3.5, Reb D 0.02 % w/w + Reb M 0.02 % w/w
[19] = pH 3.5, Reb D 0.025 % w/w alone
[20] = pH 3.5, Reb D 0.032 % w/w + Reb M 0.008 % w/w

- degradation of low concentration sample of Reb D versus higher concentration samples ([1]; across pH 2.0 to 3.5): degraded more quickly
- additional degradation of 50 ppm Reb D sample versus 80 ppm Reb D sample in combination with 320 ppm Reb M ([1]; pH 2.0): approx. 10%
- % Reb D degradation 2 weeks ([1]; pH 2, Reb D 0.005 % w/w alone): 37%
- % Reb D degradation 4 weeks ([1]; pH 2, Reb D 0.005 % w/w alone): 73%
- % Reb D degradation 6 weeks ([1]; pH 2, Reb D 0.005 % w/w alone): 84%
- % Reb D degradation 8 weeks ([1]; pH 2, Reb D 0.005 % w/w alone): 91%
- % Reb D degradation 2 weeks [1, 3]: 36%
- % Reb D degradation 4 weeks [1, 3]: 62%
- % Reb D degradation 6 weeks [1, 3]: 76%
- % Reb D degradation 8 weeks [1, 3]: 85%
- % Reb D degradation 2 weeks ([1]; pH 2, Reb D 0.015 % w/w alone): 28%
- % Reb D degradation 4 weeks ([1]; pH 2, Reb D 0.015 % w/w alone): 70%
- % Reb D degradation 6 weeks ([1]; pH 2, Reb D 0.015 % w/w alone): 82%
- % Reb D degradation 8 weeks ([1]; pH 2, Reb D 0.015 % w/w alone): 90%
- % Reb D degradation 2 weeks [1, 4]: 28%
- % Reb D degradation 4 weeks [1, 4]: 59%
- % Reb D degradation 6 weeks [1, 4]: 72%
- % Reb D degradation 8 weeks [1, 4]: 82%
- % Reb D degradation 2 weeks ([1]; pH 2, Reb D 0.025 % w/w alone): 32%
- % Reb D degradation 4 weeks ([1]; pH 2, Reb D 0.025 % w/w alone): 68%
- % Reb D degradation 6 weeks ([1]; pH 2, Reb D 0.025 % w/w alone): 81%
- % Reb D degradation 8 weeks ([1]; pH 2, Reb D 0.025 % w/w alone): 89%
- % Reb D degradation 2 weeks [1, 5]: 37%
- % Reb D degradation 4 weeks [1, 5]: 63%
- % Reb D degradation 6 weeks [1, 5]: 78%
- % Reb D degradation 8 weeks [1, 5]: 86%
- % Reb D degradation 2 weeks ([1]; pH 2, Reb D 0.04 % w/w alone): 32%
- % Reb D degradation 4 weeks ([1]; pH 2, Reb D 0.04 % w/w alone): 66%
- % Reb D degradation 6 weeks ([1]; pH 2, Reb D 0.04 % w/w alone): 79%
- % Reb D degradation 8 weeks ([1]; pH 2, Reb D 0.04 % w/w alone): 86%
- degradation of Reb D samples which also contained Reb M versus Reb D samples alone (FIG. 4) ([1]; pH 2.0 and 2.5, averaged over samples): degraded less
- % Reb D degradation 2 weeks [1, 6]: 11%
- % Reb D degradation 4 weeks [1, 6]: 37%
- % Reb D degradation 6 weeks [1, 6]: 44%
- % Reb D degradation 8 weeks [1, 6]: 55%
- % Reb D degradation 2 weeks [1, 7]: 8%
- % Reb D degradation 4 weeks [1, 7]: 28%
- % Reb D degradation 6 weeks [1, 7]: 37%
- % Reb D degradation 8 weeks [1, 7]: 42%
- % Reb D degradation 2 weeks [1, 8]: 10%
- % Reb D degradation 4 weeks [1, 8]: 32%
- % Reb D degradation 6 weeks [1, 8]: 40%
- % Reb D degradation 8 weeks [1, 8]: 50%
- % Reb D degradation 2 weeks [1, 9]: 7%
- % Reb D degradation 4 weeks [1, 9]: 25%
- % Reb D degradation 6 weeks [1, 9]: 33%
- % Reb D degradation 8 weeks [1, 9]: 42%
- % Reb D degradation 2 weeks [1, 10]: 8%
- % Reb D degradation 4 weeks [1, 10]: 27%
- % Reb D degradation 6 weeks [1, 10]: 34%
- % Reb D degradation 8 weeks [1, 10]: 44%
- % Reb D degradation 2 weeks [1, 11]: 5%
- % Reb D degradation 4 weeks [1, 11]: 23%
- % Reb D degradation 6 weeks [1, 11]: 33%
- % Reb D degradation 8 weeks [1, 11]: 42%
- % Reb D degradation 2 weeks ([1]; pH 2.5, Reb D 0.04 % w/w alone): 7%
- % Reb D degradation 4 weeks ([1]; pH 2.5, Reb D 0.04 % w/w alone): 25%
- % Reb D degradation 6 weeks ([1]; pH 2.5, Reb D 0.04 % w/w alone): 34%
- % Reb D degradation 8 weeks ([1]; pH 2.5, Reb D 0.04 % w/w alone): 43%
- % Reb D degradation 2 weeks ([1]; pH 3, Reb D 0.005 % w/w alone): 0%
- % Reb D degradation 4 weeks ([1]; pH 3, Reb D 0.005 % w/w alone): 17%
- % Reb D degradation 6 weeks ([1]; pH 3, Reb D 0.005 % w/w alone): 22%
- % Reb D degradation 8 weeks ([1]; pH 3, Reb D 0.005 % w/w alone): 29%
- % Reb D degradation 2 weeks [1, 12]: 1%
- % Reb D degradation 4 weeks [1, 12]: 17%
- % Reb D degradation 6 weeks [1, 12]: 22%
- % Reb D degradation 8 weeks [1, 12]: 24%
- % Reb D degradation 2 weeks ([1]; pH 3, Reb D 0.015 % w/w alone): 0%
- % Reb D degradation 4 weeks ([1]; pH 3, Reb D 0.015 % w/w alone): 11%
- % Reb D degradation 6 weeks ([1]; pH 3, Reb D 0.015 % w/w alone): 16%
- % Reb D degradation 8 weeks ([1]; pH 3, Reb D 0.015 % w/w alone): 22%
- % Reb D degradation 2 weeks [1, 13]: 0%
- % Reb D degradation 4 weeks [1, 13]: 17%
- % Reb D degradation 6 weeks [1, 13]: 20%
- % Reb D degradation 8 weeks [1, 13]: 23%
- % Reb D degradation 2 weeks ([1]; pH 3, Reb D 0.025 % w/w alone): 1%
- % Reb D degradation 4 weeks ([1]; pH 3, Reb D 0.025 % w/w alone): 10%
- % Reb D degradation 6 weeks ([1]; pH 3, Reb D 0.025 % w/w alone): 13%
- % Reb D degradation 8 weeks ([1]; pH 3, Reb D 0.025 % w/w alone): 19%
- % Reb D degradation 2 weeks [1, 14]: 1%
- % Reb D degradation 4 weeks [1, 14]: 14%
- % Reb D degradation 6 weeks [1, 14]: 17%
- % Reb D degradation 8 weeks [1, 14]: 20%
- % Reb D degradation 2 weeks ([1]; pH 3, Reb D 0.04 % w/w alone): 0%
- % Reb D degradation 4 weeks ([1]; pH 3, Reb D 0.04 % w/w alone): 9%
- % Reb D degradation 6 weeks ([1]; pH 3, Reb D 0.04 % w/w alone): 11%
- % Reb D degradation 8 weeks ([1]; pH 3, Reb D 0.04 % w/w alone): 18%
- % Reb D degradation 8 weeks ([1]; pH 3.5, Reb D 0.005 % w/w (50 ppm) alone): 20%
- % Reb D degradation 2 weeks [1, 15]: 1%
- % Reb D degradation 4 weeks [1, 15]: 10%
- % Reb D degradation 6 weeks [1, 15]: 14%
- % Reb D degradation 2 weeks [1, 16]: 0%
- % Reb D degradation 4 weeks [1, 16]: 6%
- % Reb D degradation 6 weeks [1, 16]: 6%
- % Reb D degradation 8 weeks [1, 16]: 9%
- % Reb D degradation 2 weeks [1, 17]: 0%
- % Reb D degradation 4 weeks [1, 17]: 4%
- % Reb D degradation 6 weeks [1, 17]: 5%
- % Reb D degradation 8 weeks [1, 17]: 8%
- % Reb D degradation 2 weeks [1, 18]: 0%
- % Reb D degradation 4 weeks [1, 18]: 6%
- % Reb D degradation 6 weeks [1, 18]: 8%
- % Reb D degradation 8 weeks [1, 18]: 9%
- % Reb D degradation 2 weeks [1, 19]: 0%
- % Reb D degradation 4 weeks [1, 19]: 2%
- % Reb D degradation 6 weeks [1, 19]: 2%
- % Reb D degradation 8 weeks [1, 19]: 5%
- % Reb D degradation 2 weeks [1, 20]: 1%
- % Reb D degradation 4 weeks [1, 20]: 2%
- % Reb D degradation 6 weeks [1, 20]: 2%
- % Reb D degradation 8 weeks [1, 20]: 5%
- % Reb D degradation 8 weeks ([1]; pH 3.5, Reb D 0.04 % w/w (400 ppm) alone): 5%
- % Reb D degradation 2 weeks ([1]; pH 3.5, Reb D 0.04 % w/w alone): 1%
- % Reb D degradation 4 weeks ([1]; pH 3.5, Reb D 0.04 % w/w alone): 1%
- % Reb D degradation 6 weeks ([1]; pH 3.5, Reb D 0.04 % w/w alone): 1%
- stability of Reb D combined with Reb M in a ratio of about 1:1, compared to on its own ([1]; pH range 2.0 to 2.5): most stable
Structure (SMILES): C=C1C[C@@]23CC[C@H]4[C@@](C)(CCC[C@@]4(C)C(=O)O[C@@H]4O[C@H](CO)[C@@H](O)[C@H](O)[C@H]4O[C@@H]4O[C@H](CO)[C@@H](O)[C@H](O)[C@H]4O)[C@@H]2CC[C@]1(O[C@@H]1O[C@H](CO)[C@@H](O)[C@H](O[C@@H]2O[C@H](CO)[C@@H](O)[C@H](O)[C@H]2O)[C@H]1O[C@@H]1O[C@H](CO)[C@@H](O)[C@H](O)[C@H]1O)C3 [Reb D, rebaudioside D]
- Sweetness potency (relative to sucrose) [2]: 221
